Experimental data published in patent US20230151065A1, “MULTI-DISULFIDE-BOND LONG-CHAIN PEPTIDE WITH NEURO[…], PHARMACEUTICAL COMPOSITION AND APPLICATION” (priority 2018, published 2023).
Where no end group is shown, it is not given here.

Tests used:
[1] = system: primary cultured hippocampal neurons damaged by NMDA; experiment: NMDA damage of primary cultured hippocampal neurons, MTT viability; type: cell-based, SD (Sprague-Dawley) rat; conditions: for hippocampal neuron activity after NMDA damage (MTT): MK801 10 μM
From the text: (1) Establishment of NMDA damage model. Primary culture of hippocampal neurons: SD (Sprague-Dawley) female rats pregnant for 18-19 days were anesthetized with a compound anaesthetic agent; fetal rat brains were taken under aseptic conditions and placed in HBSS solution (8.4 g/L of NaCl, 0.224 g/L of KCl, 2.38 g/L of HEPES, 500,000 units of penicillin sodium and 500,000 units of kanamycin sulfate; the pH was adjusted to 7.1-7.2 with 1M NaOH; then the osmotic pressure was adjusted to about 290±10 m Osm with ultrapure water; and after filtration, the solution was stored at 4° C.); the meninges were removed under a stereoscopic dissecting microscope; the bilateral hippocampus was removed and digested in 0.125% pancreatic protease at 37° C. for 10 min; and complete media (90% DMEM medium+10% FBS) (FBS: fetal bovine serum) was used to terminate the digestion; the bilateral hippocampus was washed for 3 times with the complete media to make a single cell suspension; the cell density was adjusted to about 7-8×10^5/ml; and the bilateral hippocampus was inoculated to a 6-well/96-well cell culture plate/60 mm culture dish/slide coated with L-polylysine. After 24 hours, the media were changed to serum-free neurobasal media (GIBCO) which were then placed in a 5% CO2, 37° C. incubator for culture; and half of the solution was changed every three days.
(2) NMDA damage treatment of hippocampal neurons: (1) The original media were sucked out and the cells were washed with magnesium-free extracellular fluid for three times, each for 5 minutes. (2) 10 mM NMDA (N-methyl-D-aspartic acid) and 10 mM Gly (glycine) were prepared with magnesium-free extracellular fluid, and NMDA was prepared to different concentrations with the magnesium-free extracellular fluid, wherein the final concentration of Gly was 10 μM. […] After damage, the cells were washed for three times with DMEM medium, each for 5 minutes. (3) The original culture media were re-added to continue for culturing for 24 hours.
(3) Detection of viability of hippocampal neurons after NMDA damage: (1) The hippocampal neurons were inoculated into a 96-well culture plate at 8×10^5 cells/ml, 0.1 ml per well, and cultured in a 5% CO2 incubator for 7-8 days. (2) After NMDA damage treatment and continuous culture for 24 hours, the culture solution was sucked off. (3) 100 μl of DMEM culture medium containing MTT (3-(4,5-dimethylthiazole-2)-2,5-diphenyltetrazolium bromide, 0.5 mg/ml) was added to each well, and the culture plate was put into 37° C., 5% CO2 incubator for culturing for 4 h. (4) 100 μl of 20% SDS was added to each well (20 g of sodium lauryl sulfate was dissolved in 50 ml of ddH2O+50 ml of N,N dimethylformamide) at 37° C. for 20 h. (5) The solution was shaken on a horizontal shaker for 5 min. (6) The optical density (OD) was measured at 570 nm (reference wavelength of 490 nm) on a microplate reader.
(6) Effect of ABPPk2 on decrease of hippocampal neuron activity caused by NMDA. Effect of different concentrations of ABPPk2 on hippocampal neuron damage caused by NMDA (100 μM, 30 min). The experiment was divided into 9 experimental groups: a normal group, NMDA (100 μM, 30 min) group (as a control group), ABPPk2 (0.01 μg/ml) group, ABPPk2 (0.1 μg/ml) group, ABPPk2 (0.3 μg/ml) group, ABPPk2 (1 μg/ml) group, ABPPk2 (3 μg/ml) group, ABPPk2 (10 μg/ml) group and MK801 (dizocilpine, 10 μM) group (as a positive control group). Three administration ways were adopted for ABPPk2: (1) ABPPk2 was administered 12 hours before and during the NMDA damage. (2) ABPPk2 was administered during NMDA damage. (3) ABPPk2 was administered during 24 hours of culture after NMDA damage.

[2] = system: primary cultured SD fetal rat cortical neurons after OGD damage; experiment: OGD damage of cortical neurons, Western blot of apoptosis-related proteins; type: cell-based
[3] = system: primary cultured hippocampal neurons; experiment: Synapse formation in hippocampal neurons (SYN/PSD95 staining, PSD95 Western blot); type: cell-based, rat; conditions: treatment with ABPPk2 for 8 d
Method: (1) Primary culture of fetal rat hippocampal neurons: after a rat pregnant for 17 days was anesthetized, a fetal rat was taken out under sterile conditions; the brain of the fetal rat was taken out on ice; the hippocampus was carefully taken out under a dissecting microscope; and the blood vessel membranes were removed. 0.125% trypsin/EDTA was digested at 37° C. for 10 min, and the digestion was stopped by adding the DMEM complete medium containing 10% FBS. Cell debris were removed through centrifugal at 1000 rpm for 5 min; the DMEM complete medium was added to resuspend the cells; the cells were gently blown until a single cell suspension was formed; and the cells were inoculated at an appropriate density on a culture plate (dish) pre-coated with polylysine (PLL) and cultured at 37° C., 5% CO2 incubator. […]
(7) Promotion effect of ABPPk2 on synapse formation in primary cultured hippocampal neurons. […] The field of view was randomly selected and photographed under the laser confocal microscope, and the number of synaptic cristulas on every 100 μm neurites was counted. The effect of ABPPk2 on the expression of PSD95 was analyzed by Western blot. The steps were as follows: the total protein was extracted and the total protein concentration was determined by Bradford method. […]

[4] = after OGD damage and treatment with ABPPk2
[5] = total protein, ABPPk2 medium-dose (40 ng/ml) and high-dose (200 ng/ml) groups vs OGD damage group

Cys-Leu-Glu-Ser-Gly-Thr-Ser-Cys-Ile-Pro-Gly-Ala-Gln-His-Asn-Cys-Cys-Ser-Gly-Val-Cys-Val-Pro-Ile-Val-Thr-Ile-Phe-Tyr-Gly-Val-Cys-Tyr (CLESGTSCIPGAQHNCCSGVCVPIVTIFYGVCY; disulfide (positions not given here); not fully specified (bridges); also: three disulfide bonds, pairing not given here) [ABPPk2, 33 amino acid polypeptide isolated from the extract of Achyranthes bidentata Blume, three pairs of disulfide bonds]
hippocampal neuron activity after NMDA damage (MTT) ([1]; given 12 h before and during NMDA (100 μM, 0.5 h), ABPPk2 0.1, 0.3 and 1 μg/ml groups): can effectively reduce the decrease of hippocampal neuron activity caused by NMDA damage | hippocampal neuron activity after NMDA damage (MTT) ([1]; given during 24 h culture after NMDA damage (100 μM, 0.5 h), ABPPk2 0.1-10 μg/ml): can effectively reduce the decrease of hippocampal neuron activity caused by NMDA damage | hippocampal neuron activity after NMDA damage (MTT) ([1]; given during NMDA damage (100 μM, 0.5 h), ABPPk2 1 and 10 μg/ml groups): can effectively reduce the decrease of hippocampal neuron activity caused by NMDA damage | protective effect on NMDA damage of primary hippocampal neurons ([1]; overall statement, experimental solution of embodiment 6, concentration and administration way not stated): has a protective effect on the damage of primary cultured hippocampal neurons induced by NMDA | expression of AIF in mitochondria [2, 4]: significantly up-regulated | expression of AIF in the nucleus [2, 4]: significantly down-regulated | expression of Cyt C in cytoplasma [2, 4]: significantly down-regulated | expression of Cyt C in mitochondria [2, 4]: significantly up-regulated | Bcl-2 expression ([2]; total protein, ABPPk2 high-dose group (200 ng/ml) vs OGD damage group): significantly up-regulated | Bax expression [2, 5]: significantly down-regulated | Cleaved caspase-3 expression [2, 5]: significantly down-regulated | number of the formed synapses [3]: the number of the formed synapses can be significantly increased | expression of PSD95 protein ([3]; Western blot): up-regulated
